These results are taken from patent US8957049B2, “Inhibitors of fatty acid amide hydrolase” (Infinity Pharmaceuticals, Inc., priority 2008, dated 2015).

The target in this test is T1, human FAAH (Homo sapiens, UniProt O00519).
T1 construct: host or cells: COS-7 cells, transient transfection (FuGENE 6); 13,000 g membrane fraction solubilised in 1% Triton X-100
T1 sequence (O00519 1-579): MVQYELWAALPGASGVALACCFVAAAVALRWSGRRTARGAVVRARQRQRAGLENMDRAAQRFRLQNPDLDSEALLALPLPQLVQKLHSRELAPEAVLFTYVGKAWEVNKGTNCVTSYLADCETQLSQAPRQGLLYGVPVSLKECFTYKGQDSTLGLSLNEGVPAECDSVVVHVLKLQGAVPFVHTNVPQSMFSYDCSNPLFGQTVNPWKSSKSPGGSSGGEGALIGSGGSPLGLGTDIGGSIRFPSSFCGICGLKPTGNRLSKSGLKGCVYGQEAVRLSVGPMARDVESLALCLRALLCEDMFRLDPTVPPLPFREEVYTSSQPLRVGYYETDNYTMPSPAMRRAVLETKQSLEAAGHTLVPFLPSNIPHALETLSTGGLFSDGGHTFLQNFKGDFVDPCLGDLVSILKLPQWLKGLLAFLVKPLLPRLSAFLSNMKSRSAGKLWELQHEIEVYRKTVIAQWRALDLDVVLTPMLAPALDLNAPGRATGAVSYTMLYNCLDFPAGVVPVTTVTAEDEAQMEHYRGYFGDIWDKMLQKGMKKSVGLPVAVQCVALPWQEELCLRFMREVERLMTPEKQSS
The test is described as follows: Human FAAH biochemical inhibition assay (AMC arachidonoyl amide fluorescence). As to the method: Exemplary compounds are set forth in the Examples provided below. Compounds were assayed as inhibitors of human FAAH using the method described in detail in Example 286.
The following assays may be used to determine the inhibition of FAAH by the compounds of the present invention: (1) a fluorescence-based assay for fatty acid amide hydrolase compatible with high-throughput screening as described in Manjunath et al., Analytical Biochemistry (2005) 343:143-151; and (2) a high-throughput screening for the discovery of inhibitors of fatty acid amide hydrolase using a microsome-based fluorescent assay. Wang et al., Biomolecular Screening (2006) 1-9.
COS-7 cells were split the day before, 1:5 into 150 mm×25 mm cell culture dishes (Corning Inc., Cat. No. 430599). Transient transfection took place at 30-40% confluency according to FuGENE 6 Transfection Reagent (Roche, Cat. No. 11814 443 001).
The FuGENE transfection 6 reagent (45 uL) was added to 1410 μL of media (DMEM, serum free without pen/strep) in a 15 mL conical tube and incubated at room temp for 5 minutes, followed by the addition of FAAH plasmid DNA (15 μg) (OriGene Cat. No. TC119221, Genbank Accession No. NM_001441.1, 0.67 ug/uL) and a further incubation of 15 minutes at room temperature. The resulting solution was added into one dish of 30-40% confluent COS-7 cells in a drop-wise manner. The COS-7 cell dish was subsequently incubated for 48 hours. The cells are then harvested.
Media was aspirated from the dishes and the cells rinsed with 10 mL PBS. The PBS was removed and 3 mL of PBS added to the dish. The dish was scraped to resuspend the cells, and the subsequent cell suspension collected into a 15 mL conical tube. The cells were pelleted by centrifugation at 1200 rpm for 5 minutes in a bench top centrifuge. PBS was removed and the cell pellet snap frozen in liquid nitrogen and stored at −80° C.
COS-7 Cells—FAAH Purification: • (1) Fractionation: Frozen cell pellets from transient transfections were thawed on ice and resuspended in 12.5 mM Hepes pH 8.0, 100 mM NaCl, 1 mM EDTA (10 mL/0.2 g cell pellet). The pellets were dounce homogenized and then sonicated to produce cell extract. The cell extract was subsequently centrifuged at 1000 g to remove cellular debris. The pellet was discarded and the supernatant centrifuged at 13,000 g for 20 minutes. The pellet contained membrane bound FAAH. The supernatant was discarded and the pellet resolubilized. • (2) Re-solubilization: The fraction of interest, (13,000 g, membrane fraction) was re-suspended in 2.3 mL re-suspension buffer (20 mM Hepes pH 7.8, 10% v/v Glycerol, 1 mM EDTA, 1% Triton X-100) and the sample incubated on ice for 1 hour and then centrifuged to remove any particulate matter. The supernatant containing solubilized human FAAH was aliquoted and snap frozen in liquid nitrogen and stored at −80° C. until use. • (3) Characterization: Protein Concentration determined by Bradford assay. • SDS gel and Western blot to confirm presence of FAAH • FAAH activity assay • Km determination—96-well assay • Linear dependence—96-well assay • Standard compound Ki determination—384-well assay
Rat FAAH biochemical assays were carried out in a 96 well flat bottom black non-treated polystyrene plates (Corning Costar Catalogue #3915). FAAH reaction buffer: 50 mM Hepes (pH 7.5), 1 mM EDTA, 0.2% Triton X-100. FAAH substrate—AMC Arachidonoyl Amide (Cayman Chemicals Company, Catalog #10005098). The reaction was read in an Envision microtiter plate reader [Excitation filter 355 nm (40 nm bandpass); Emmision filter 460 nm (25 nm bandpass)]. The raw fluorescence was plotted on the y axis and the inhibitor concentration on the x axis to give a dose response inhibition curve. The data was fitted to a single site competitive inhibition equation, fixing the Km for the rat and human enzyme to 12 μM and 9 μM respectively. […]

Where [1] appears, read: class given in each Example, read-out: Activity (Ki, inhibition of human FAAH).
Where [2] appears, read: Table A, read-out: Activity (Ki) of other boronic acids tested, Table A.

Molecules are shown by their SMILES. Where two headings read alike, the source gives them in different places. A value given as a limit tells only on which side of the number the result lay.

For `OB(O)c1ccc(-c2cnn(Cc3ccccc3)c2)cc1` [Compound 227], the Ki (commonly a measure of affinity in units of concentration, obtained from inhibition or displacement) under setting [1] was no more than 10 nM.

As for `OB(O)c1ccc(-c2ncc(-c3ccccc3)o2)cc1F` [Compound 1], the Ki under setting [1] lay within 10 to 100 nM.

Regarding `OB(O)c1ccc(-c2nnc(CCC3CCCCC3)o2)cc1` [Compound 36], the Ki under setting [1] was no more than 10 nM.

As for `COCc1nnc(-c2ccc(B(O)O)cc2)o1` [Compound 75], the Ki under setting [1] was no more than 10 nM.

As for `COC(=O)C1CC(Cc2ccccc2)ON1Cc1ccc(B(O)O)c(F)c1` (stereo not shown) [Compound 148], under setting [1], the Ki fell in the range of 10 to 100 nM.

For `CCCN1CCC(Cc2nc3ccc(B(O)O)cc3o2)CC1` [Compound 303], the Ki under setting [1] fell in the range of 100 to 1000 nM.

With `CC(C)Cc1nnc(-c2ccccc2B(O)O)o1` [Compound 284], the Ki under setting [1] is greater than 1000 nM.

In the case of `OB(O)c1ccc(-c2nc(CCc3ccccc3)c(-c3ccccc3)s2)cc1` [Compound 8], the Ki under setting [1] is greater than 1000 nM.

Turning to `OB(O)c1ccc(C2=NOC(c3ccccc3)C2)cc1` (stereo not shown) [Compound 159], under setting [1], the Ki is no more than 10 nM.

Turning to `CN(CCc1ccc(B(O)O)cc1)C(=O)OC(C)(C)C` [Compound 234], the Ki under setting [1] is no more than 10 nM.

As to `OCc1cc(OCc2ccccc2)ccc1B(O)O` [Compound 96], the Ki under setting [1] was greater than 1000 nM.

`O=C(Cc1ccccc1)N/N=C/c1ccccc1B(O)O` [Compound 121]: the Ki under setting [1] was greater than 1000 nM.

On to `O=C(Nc1ccccn1)c1ccc(B(O)O)cc1`, for which, under setting [2], the Ki was in the range of 10 to 100 nM.

On to `OCCN1N=Cc2cc(OCCc3ccccc3)ccc2B1O` [Compound 107], for which the Ki under setting [1] is greater than 1000 nM.

Regarding `O=[N+]([O-])c1cccc(Oc2ccc3cc(B(O)O)ccc3n2)c1` [Compound 195], the Ki under setting [1] is no more than 10 nM.

For the compound `COc1ccc2cc(B(O)O)ccc2n1` [Compound 202], under setting [1], the Ki was in the range of 10 to 100 nM.

`O=C(CCN1C(=O)C=CC1=O)N/N=C/c1cc(OCCc2ccccc2)ccc1B(O)O` [Compound 119]: the Ki under setting [1] was no more than 10 nM.

For `OB(O)c1ccc(OCCn2ccnc2)cc1`, the Ki under setting [2] was in the range of 100 to 1000 nM.

`OB(O)c1cccc2cccc(COc3cccc(F)c3)c12` [Compound 151]: the Ki under setting [1] is greater than 1000 nM.

`CC(C)(C)OC(=O)N1CCN(c2ccc(B(O)O)cc2)CC1` [Compound 318]: under setting [1], the Ki was 10 to 100 nM.

Regarding `COc1cccc(-c2nnc(-c3ccc(B(O)O)cc3)o2)c1` [Compound 66], the Ki under setting [1] is no more than 10 nM.

Consider `OB(O)c1ccc(-c2cc(-c3ccccc3)no2)cc1` [Compound 156], for which, under setting [1], the Ki is no more than 10 nM.

Turning to `CN(Cc1ccccc1)C(=O)/C=C/c1ccccc1B(O)O` [Compound 114], under setting [1], the Ki fell in the range of 100 to 1000 nM.

With `O=C(Cc1c[nH]c2ccccc12)N/N=C/c1ccccc1B(O)O` [Compound 122], the Ki under setting [1] was greater than 1000 nM.

For `CN(CCCc1ccc(B(O)O)cc1)C(=O)OC(C)(C)C` [Compound 235], the Ki under setting [1] is no more than 10 nM.

As for `Cc1cc(B(O)O)cnc1N1CCOCC1`, the Ki under setting [2] lay within 100 to 1000 nM.

On to `OB(O)c1ccc(-c2cn(-c3ccccc3)nn2)cc1F` [Compound 134], for which, under setting [1], the Ki lay in the range of 10 to 100 nM.

In the case of `OB(O)c1ccc2cc(Oc3ncccn3)ccc2c1` [Compound 208], the Ki under setting [1] is no more than 10 nM.

Consider `Cc1nnc(-c2cc(C(F)(F)F)ccc2B(O)O)o1` [Compound 11], for which, under setting [1], the Ki lay within 100 to 1000 nM.

With `OCCCc1ccc(B(O)O)cc1`, under setting [2], the Ki lay in the range of 100 to 1000 nM.

As to `O=C(/C=C/c1cc(OCCc2ccccc2)ccc1B(O)O)NCc1ccco1` [Compound 288], the Ki under setting [1] is greater than 1000 nM.

Take `CCCc1nnc(-c2cc(F)ccc2B(O)O)o1` [Compound 261]: under setting [1], the Ki is greater than 1000 nM.

For the compound `OB(O)c1ccc(-c2ncc(-c3ccccc3)s2)cc1F` [Compound 3], the Ki under setting [1] is greater than 1000 nM.

For `OB(O)c1ccc(-c2nnc(CCC(F)(F)C(F)(F)F)o2)cc1` [Compound 20], the Ki under setting [1] is no more than 10 nM.

Consider `CCCc1noc(-c2cc(OCCc3ccccc3)ccc2B(O)O)n1` [Compound 273], for which, under setting [1], the Ki was in the range of 10 to 100 nM.

`OB(O)c1ccc(C2=NOC(c3cccnc3)C2)cc1` (stereo not shown) [Compound 165]: the Ki under setting [1] is 10 to 100 nM.

Take `CN(C)C(=O)/C=C/c1cc(OCCc2ccccc2)ccc1B(O)O` [Compound 103]: the Ki under setting [1] lay within 10 to 100 nM.

With `OB(O)c1ccc(C(F)(F)F)nc1`, under setting [2], the Ki is 100 to 1000 nM.

Consider `NCC(=O)N/N=C/c1cc(OCc2ccccc2)ccc1B(O)O` [Compound 118], for which the Ki under setting [1] is greater than 1000 nM.

On to `O=C(NCCCO)c1ccc(B(O)O)cc1`, for which, under setting [2], the Ki was greater than 1000 nM.

As for `CC(C)c1nnc(-c2ccccc2B(O)O)o1` [Compound 283], the Ki under setting [1] is greater than 1000 nM.

`O=C(CCB(O)O)N1CCN(C(=O)OCc2ccccc2)CC1` [Compound 322]: under setting [1], the Ki lay in the range of 10 to 100 nM.

Take `OB(O)c1ccc(-c2nnc(-c3cccc(C(F)(F)F)c3)o2)cc1` [Compound 47]: under setting [1], the Ki was no more than 10 nM.

Turning to `OB(O)c1ccc(-c2ncc(-c3ccccc3)o2)cc1` [Compound 2], the inhibition constant Ki under setting [1] lay in the range of 10 to 100 nM.

On to `CCCc1noc(-c2ccc(B(O)O)cc2)n1` [Compound 272], for which the Ki under setting [1] was no more than 10 nM.

As to `OB(O)c1ccc(-c2nnc(-c3cccnc3)s2)cc1` [Compound 49], the Ki under setting [1] was no more than 10 nM.

Consider `OB(O)c1ccc2ccc(Oc3ccccc3)nc2c1` [Compound 188], for which, under setting [1], the Ki was no more than 10 nM.

In the case of `CC(C)(C)OC(=O)N1CCC(Cc2nc3ccc(B(O)O)cc3o2)CC1` [Compound 299], the Ki under setting [1] was no more than 10 nM.

As for `NNC(=O)CCc1ccc(B(O)O)cc1`, the Ki under setting [2] fell in the range of 100 to 1000 nM.

`OB(O)c1ccc2nc(Cc3ccccc3)oc2c1` [Compound 241]: under setting [1], the Ki is no more than 10 nM.

Turning to `CN(CCc1ccc(B(O)O)cc1)S(=O)(=O)c1ccccc1` [Compound 237], under setting [1], the Ki was no more than 10 nM.

With `OB(O)c1ccc(-n2cc(-c3ccccc3)nn2)cc1` [Compound 143], under setting [1], the Ki is no more than 10 nM.

As for `CN(Cc1ccccc1)Cc1cc(OCc2ccccc2)ccc1B(O)O` [Compound 110], under setting [1], the Ki lay in the range of 100 to 1000 nM.

For `CCCCCCc1nnc(-c2ccc(B(O)O)cc2)o1` [Compound 37], under setting [1], the Ki is no more than 10 nM.

Regarding `CCCCCc1nnc(-c2ccc(B(O)O)cc2Cl)o1` [Compound 29], the Ki under setting [1] was no more than 10 nM.

In the case of `CCCCCc1nnc(-c2ccccc2B(O)O)o1` [Compound 281], the Ki under setting [1] was greater than 1000 nM.

Turning to `CCCc1nnc(-c2cc(OCCc3ccccc3)ccc2B(O)O)o1` [Compound 17], the inhibition constant Ki under setting [1] was no more than 10 nM.

In the case of `OB1c2sccc2C=NN1Cc1ccccc1` [Compound 256], the Ki under setting [1] was greater than 1000 nM.

As to `OB(O)c1ccccc1-c1nnc(-c2ccco2)o1` [Compound 264], the Ki under setting [1] is greater than 1000 nM.

Consider `OB(O)c1ccc2nc(CC3CCN(Cc4ccccc4)CC3)oc2c1` [Compound 302], for which, under setting [1], the Ki was 10 to 100 nM.

As to `O=C(CCB(O)O)NCCc1ccccc1` [Compound 321], the Ki under setting [1] was in the range of 100 to 1000 nM.
